From ChEMBL document CHEMBL3714710, “Diaminopyrimidines as P2X3 and P2X2/3 modulators” (2010)
The source made the active and inactive calls. No cut-off for these calls is given here.

What follows are compounds tested against T1, P2X purinoceptor 3 (Rattus norvegicus) (UniProt P49654) (assay: Antagonist activity against rat P2X3 receptor expressed in CHOK1 cells assessed as inhibition of alpha,beta-meATP-induced calcium response incubated for 20 mins by Fluo-3AM dye based FLIPR assay). Settings: CHO-K1.
T1 sequence (whole entry): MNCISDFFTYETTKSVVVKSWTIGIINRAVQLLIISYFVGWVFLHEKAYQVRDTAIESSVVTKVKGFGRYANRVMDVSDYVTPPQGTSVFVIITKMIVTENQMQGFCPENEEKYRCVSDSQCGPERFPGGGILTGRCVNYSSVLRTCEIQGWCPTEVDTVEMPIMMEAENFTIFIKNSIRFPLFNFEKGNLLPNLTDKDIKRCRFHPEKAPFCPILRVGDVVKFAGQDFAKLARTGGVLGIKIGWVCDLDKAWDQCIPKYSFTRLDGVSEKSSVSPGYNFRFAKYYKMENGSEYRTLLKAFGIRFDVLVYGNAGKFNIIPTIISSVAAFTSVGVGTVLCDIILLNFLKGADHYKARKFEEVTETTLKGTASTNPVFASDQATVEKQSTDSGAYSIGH
Assay type: functional, cell-based

inhibition, active:
COc1ccc2cc(Oc3cnc(N)nc3N)c(C(C)C)cc2c1
Cc1nccc2cc(Oc3cnc(N)nc3N)c(C(C)C)cc12
Nc1ncc(Oc2cc3ccccc3cc2I)c(N)n1
CC(C)c1cc2ncccc2cc1Oc1cnc(NC(CO)CO)nc1N
Cc1ccc2nc(C(C)C)c(Oc3cnc(N)nc3N)cc2c1
CC(C)c1nc2ccccc2cc1Oc1cnc(N)nc1N
Cc1cccc2cc(Oc3cnc(N)nc3N)c(C(C)C)nc12
Cc1cccc2cc(Oc3cnc(N)nc3N)c(C(C)C)cc12
CC(C)c1cc2cccnc2cc1Oc1cnc(N)nc1N
Cc1cccc2cc(C(C)C)c(Oc3cnc(N)nc3N)cc12
